The text below walks through data of patent publication US20110226998A1, “ELECTROWETTING ELEMENTS” (LIQUAVISTA B.V., priority 2008, published 2011).

The series can be described thus: Photo-bleaching test according to standard IEC 60068-2-9, Atlas Suntest CPS/XLS+ instrument, reflectance measurement. In kind it is physicochemical. To be noted: sample thickness 4 micrometres, 1 centimetre diameter, 0.1M in decane. The source says: Exemplary dye compounds will now be described below, including a schematic illustration of each dye. Whilst exemplary anthraquinone dyes are given below, it is to be appreciated that corresponding napthoquinone dyes are envisaged also within the scope of the present invention, namely including napthoquinones having the same molecular structure of the right hand (as illustrated herein) benzene ring as the molecular structure of the right hand (as illustrated herein) benzene ring of the anthrquinone examples described below. The stereochemistry of each dye is not limited to that shown; it is to be appreciated that molecular structures of the dyes having different stereochemistry are within the scope of the dyes of the invention. […] For each of the exemplary dyes, data is given as evidence of their reduced photo-bleaching properties. […] The periods of time given for testing are scalable to equate to a number of weeks of exposing the tested dyes to solar radiation. For example, the period of exposure of 240 hours given below approximately equates to continuously exposing the dyes to solar radiation in London, UK, for 14 weeks, taking an average yearly solar radiation quantity as 1,000 kWh/m^2/year. In reality, taking into account that a display application is not used or is used inside for a major part of the time, this equates to a few years of practical lifetime.
This dye is cyan in colour. Upon testing, a sample of the dye with a thickness of 4 micrometres, a circular area of 1 centimetre diameter and a concentration of 0.1M in decane, was measured for reflectance of radiation with wavelengths from 380 to 750 nano-metres, at 5 nano-metre increments. This test was run separately for different time periods, namely for 0, 4, 24, 48, 120 and 240 hours. The reflectance of the dye for the range of wavelengths tested was approximately the same for each different testing time period.
This dye is purple in colour. Upon testing, a sample of the dye with a thickness of 4 micrometres, a circular area of 1 centimetre diameter and a concentration of 0.1M in decane, was measured for reflectance of radiation with wavelengths from 380 to 750 nano-metres, at 5 nano-metre increments. This test was run separately for different time periods, namely for 0, 4, 24, 48, and 120 hours. The reflectance of the dye for the range of wavelengths tested was approximately the same for each different testing time period.
This dye is magenta in colour. Upon testing, a sample of the dye with a thickness of 4 micrometres, a circular area of 1 centimetre diameter and a concentration of 0.1M in decane, was measured for reflectance of radiation with wavelengths from 380 to 750 nano-metres, at 5 nano-metre increments. This test was run separately for different time periods, namely for 0, 4, 24, 48, 120 and 240 hours. The reflectance of the dye for the range of wavelengths tested was approximately the same for each different testing time period.
This dye is blue in colour. Upon testing, a sample of the dye with a thickness of 4 micrometres, a circular area of 1 centimetre diameter and a concentration of 0.1M in decane, was measured for reflectance of radiation with wavelengths from 380 to 750 nano-metres, at 5 nano-metre increments. This test was run separately for different time periods, namely for 0, 4, 24, 48, and 120 hours. The reflectance of the dye for the range of wavelengths tested was approximately the same for each different testing time period.
This dye is blue/cyan in colour. Upon testing, a sample of the dye with a thickness of 4 micrometres, a circular area of 1 centimetre diameter and a concentration of 0.1M in decane, was measured for reflectance of radiation with wavelengths from 380 to 750 nano-metres, at 5 nano-metre increments. This test was run separately for different time periods, namely for 0, 4, 24, 48, and 120 hours. The reflectance of the dye for the range of wavelengths tested was approximately the same for each different testing time period.

The mark [1] stands for this setting: exposure 0, 4, 24, 48, and 120 hours.
The mark [2] stands for this setting: exposure 0, 4, 24, 48, 120 and 240 hours.

Molecules are shown by their SMILES.

`CCCCC(CC)CNc1cc(CC(CC)CCCC)c(O)c2c1C(=O)c1ccccc1C2=O` (stereo not drawn) [Example 2]: the “photo-bleaching (reflectance of radiation, 380 to 750 nano-metres, compared over testing time periods)” value under setting [1] is on record as “does not exhibit photo-bleaching”. As to `CCCCCCCc1cc(NC2CCCCC2)c2c(c1NC1CCCCC1)C(=O)c1ccccc1C2=O` [Example 4], the “photo-bleaching (reflectance of radiation, 380 to 750 nano-metres, compared over testing time periods)” value under setting [2] is given as “does not exhibit photo-bleaching”. `CCCCC(CC)CNc1cc(CC(CC)CCCC)c(N)c2c1C(=O)c1ccccc1C2=O` (stereo not drawn) [Example 5]: the “photo-bleaching (reflectance of radiation, 380 to 750 nano-metres, compared over testing time periods)” value under setting [1] was “does not exhibit photo-bleaching”. For `CCCCC(CC)CNc1ccc(NCC(CC)CCCC)c2c1C(=O)c1ccccc1C2=O` (stereo not drawn) [Example 1], the “photo-bleaching (reflectance of radiation, 380 to 750 nano-metres, compared over testing time periods)” value under setting [2] is recorded as “does not exhibit photo-bleaching”. As to `CCCCC(CC)Cc1cc(NC2CCCCC2)c2c(c1NC1CCCCC1)C(=O)c1ccccc1C2=O` (stereo not drawn) [Example 3], the “photo-bleaching (reflectance of radiation, 380 to 750 nano-metres, compared over testing time periods)” value under setting [2] is “does not exhibit photo-bleaching”. For the molecule `CCCCC(CC)CNc1cc2c(c3c1C(=O)c1ccccc1C3=O)NC1CC(C)CCC1C2(C)C` (stereo not drawn) [Example 6], the “photo-bleaching (reflectance of radiation, 380 to 750 nano-metres, compared over testing time periods)” value under setting [1] is given as “does not exhibit photo-bleaching”.
